Peptide text beside a SMILES is read from it. * marks the point of attachment. Fmoc = O=C(OCC1c2ccccc2-c2ccccc21)*; Cbz = O=C(OCc1ccccc1)*; Boc = CC(C)(C)OC(=O)*

The species entered for one assay is Oryctolagus cuniculus. Nature of the assay: Macrophage migration-enhancing activity was evaluated using rabbit alveolar macrophages expressed as Migration Index (MI). Type of assay: functional.
With `Clc1ccc(C2=N[C@H](c3ccccc3)[C@H](c3ccccc3)N2)cc1`, the MI was 140.

Test system in another assay: not listed separately
Put plainly: Macrophage migration-enhancing activity evaluated using rabbit alveolar macrophages at 1E-7M. The assay is classed as functional, Oryctolagus cuniculus.
With `NC(=O)[C@H](Cc1c[nH]cn1)NC(=O)[C@H](Cc1ccccc1)NC(=O)[C@H](Cc1ccc(O)cc1)NC(=O)OCc1ccccc1` (Cbz-Tyr-Phe-His-NH2), the MI is reported as -28.
In the case of `CC(=O)N[C@@H](Cc1ccccc1)C(=O)N[C@@H](Cc1ccccc1)C(=O)N[C@@H](Cc1c[nH]cn1)C(N)=O` (Ac-Phe-Phe-His-NH2), the MI is given as 61.
The same measure, in the same setting: the value for `NC(=O)[C@H](Cc1ccccc1)NC(=O)[C@H](Cc1c[nH]cn1)NC(=O)[C@H](Cc1ccccc1)NC(=O)OCc1ccccc1` (Cbz-Phe-His-Phe-NH2) was -1; that for `NCCCC[C@H](NC(=O)[C@H](Cc1ccccc1)NC(=O)[C@H](Cc1ccccc1)NC(=O)OCc1ccccc1)C(N)=O` (Cbz-Phe-Phe-Lys-NH2) was 3; that for `COC(=O)[C@H](Cc1c[nH]cn1)NC(=O)[C@H](Cc1ccccc1)NC(=O)[C@H](Cc1ccccc1)NC(=O)OCc1ccccc1` (Cbz-Phe-Phe-His-OMe) was 97.
Consider `NC(=O)[C@H](Cc1ccccc1)NC(=O)[C@H](Cc1ccccc1)NC(=O)[C@H](Cc1c[nH]cn1)NC(=O)OCc1ccccc1` (Cbz-His-Phe-Phe-NH2), for which the MI was found to be 1.
With `NC(=O)[C@H](Cc1c[nH]cn1)NC(=O)[C@H](Cc1c[nH]c2ccccc12)NC(=O)[C@H](Cc1ccccc1)NC(=O)OCc1ccccc1` (Cbz-Phe-Trp-His-NH2), the MI worked out at 7.
As to `N=C(N)NCCC[C@H](NC(=O)[C@H](Cc1ccccc1)NC(=O)[C@H](Cc1ccccc1)NC(=O)OCc1ccccc1)C(N)=O` (Cbz-Phe-Phe-Arg-NH2), the MI is on record as 8.
Take `CC(C)(C)OC(=O)N[C@@H](Cc1ccccc1)C(=O)N[C@@H](Cc1ccccc1)C(=O)N[C@@H](Cc1c[nH]cn1)C(N)=O` (Boc-Phe-Phe-His-NH2): the MI amounted to 96.
The same measure, in the same setting: the value for `NC(=O)[C@H](Cc1c[nH]cn1)NC(=O)[C@H](Cc1ccccc1)NC(=O)[C@@H](Cc1ccccc1)NC(=O)OCc1ccccc1` was 2; that for `C[C@H](NC(=O)OCc1ccccc1)C(=O)N[C@@H](Cc1ccccc1)C(=O)N[C@@H](Cc1c[nH]cn1)C(N)=O` (Cbz-Ala-Phe-His-NH2) was 2.
Take `O=C(N[C@@H](Cc1ccccc1)C(=O)N[C@@H](Cc1ccccc1)C(=O)N[C@@H](Cc1c[nH]cn1)C(=O)O)OCc1ccccc1` (Cbz-Phe-Phe-His-OH): the MI is given as -6.
Consider `NC(=O)[C@H](Cc1c[nH]cn1)NC(=O)[C@H](Cc1ccc(O)cc1)NC(=O)[C@H](Cc1ccccc1)NC(=O)OCc1ccccc1` (Cbz-Phe-Tyr-His-NH2), for which the MI is -23.
Turning to `CC(C)C[C@H](NC(=O)OCc1ccccc1)C(=O)N[C@@H](Cc1ccccc1)C(=O)N[C@@H](Cc1c[nH]cn1)C(N)=O` (Cbz-Leu-Phe-His-NH2), the MI is 4.
Turning to `NC(=O)[C@@H](Cc1c[nH]cn1)NC(=O)[C@H](Cc1ccccc1)NC(=O)[C@H](Cc1ccccc1)NC(=O)OCc1ccccc1`, the MI is -1.
On to `NC(=O)[C@H](Cc1c[nH]cn1)NC(=O)[C@H](Cc1ccccc1)NC(=O)[C@@H](N)Cc1ccccc1` (H-Phe-Phe-His-NH2), for which the MI is recorded as 7.
`NC(=O)[C@H](Cc1c[nH]cn1)NC(=O)[C@H](Cc1ccccc1)NC(=O)[C@H](Cc1ccccc1)NC(=O)OCc1ccccc1`: the MI turned out to be 94.
Still for that read-out and setting: the figure for `NC(=O)[C@H](Cc1c[nH]cn1)NC(=O)[C@H](Cc1ccccc1)NC(=O)[C@H](Cc1ccccc1)N1C(=O)c2ccccc2C1=O` is -1; for `NC(=O)[C@H](Cc1c[nH]cn1)NC(=O)[C@H](Cc1ccccc1)NC(=O)[C@H](Cc1ccccc1)NC(=O)OCC1c2ccccc2-c2ccccc21` (Fmoc-Phe-Phe-His-NH2) it is 122; for `NC(=O)[C@H](Cc1c[nH]cn1)NC(=O)[C@@H](Cc1ccccc1)NC(=O)[C@H](Cc1ccccc1)NC(=O)OCc1ccccc1` it is 0.
For `NC(=O)[C@H](Cc1c[nH]cn1)NC(=O)[C@H](Cc1ccc(O)cc1)NC(=O)[C@H](Cc1ccc(O)cc1)NC(=O)OCc1ccccc1` (Cbz-Tyr-Tyr-His-NH2), the MI is listed as -25.
On to `NC(=O)[C@H](Cc1c[nH]cn1)NC(=O)[C@H](Cc1c[nH]c2ccccc12)NC(=O)[C@H](Cc1c[nH]c2ccccc12)NC(=O)OCc1ccccc1` (Cbz-Trp-Trp-His-NH2), for which the MI is given as 4.
The same measure, in the same setting: the figure for `CCOC(=O)[C@H](Cc1c[nH]cn1)NC(=O)[C@H](Cc1ccccc1)NC(=O)[C@H](Cc1ccccc1)NC(=O)OCc1ccccc1` (Cbz-Phe-Phe-His-OEt) is 95.
For `NC(=O)[C@H](Cc1c[nH]cn1)NC(=O)[C@H](Cc1ccccc1)NC(=O)[C@H](Cc1ccccc1)NC(=O)[C@H](Cc1ccccc1)NC(=O)OCc1ccccc1` (Cbz-FFFH-NH2), the MI amounted to 15.
As for `CC(C)[C@H](NC(=O)OCc1ccccc1)C(=O)N[C@@H](Cc1ccccc1)C(=O)N[C@@H](Cc1c[nH]cn1)C(N)=O` (Cbz-Val-Phe-His-NH2), the MI came to 3.
For the compound `NC(=O)C(Cc1c[nH]cn1)NC(=O)[C@@H](Cc1ccccc1)NC(=O)OCc1ccccc1` (some centres undefined), the MI is recorded as 18.
Consider `NC(=O)[C@H](Cc1c[nH]cn1)NC(=O)[C@H](Cc1ccccc1)NC(=O)[C@H](Cc1c[nH]c2ccccc12)NC(=O)OCc1ccccc1` (Cbz-Trp-Phe-His-NH2), for which the MI came out at 14.
The same measure, in the same setting: the figure for `CC(C)C[C@H](NC(=O)[C@H](Cc1ccccc1)NC(=O)OCc1ccccc1)C(=O)N[C@@H](Cc1c[nH]cn1)C(N)=O` (Cbz-Phe-Leu-His-NH2) is 4.

Values taken from ChEMBL document CHEMBL1131350, “Design of novel tripeptides with macrophage migration-enhancing activity” (1998).
